The assay concerns intact L5D0 hornworms. Description: Premature head capsule apolysis in intact L5D0 hornworms, fed treated diet. The settings on record: for ED50: L5D0 larvae, oral, read-out: 50% effective dose. It counts as in vivo, M. sexta. How it is done: Lepidoptera display the onset of a larval molt by slippage of the head capsule down over the mandibles during formation of an underlying pharate head capsule; this morphological marker accompanies epidermal apolysis which ordinarily occurs at or near peak molting hormone titers. Example No. 3 causes a rapid, premature apolysis in newly ecdysed fifth instar day 0 (L5DO) M. sexta larvae. Clear signs of head capsule apolysis are evident 24 hours after the initiation of feeding.
L4D1 means fourth instar, first day after molting. L4 animals 36 hours after ecdysis were ligated, decapitated and next day injected with varying doses of compound in 1 - 2 ul DMSO. They were scored as follows: 0 = normal L4 abdomens with no L5 crochets or spiracle apolysis; 1 = exposed dorsal vessel (response to moderate levels of molting hormone in the presence of low JH levels); 2 = L5 crochets formed but no spiracle apolysis; 3 = L5 crochets formed and mild spiracle apolysis; 4 = strong molting response, both L5 crochets and spiracle cuticle synthesized. These methods are an adaptation of the method of J. W. Truman, L. M. Riddiford, L. Safranek, 39 Dev. Biol 247 (1974). Injection and scoring of L5D3 abdomens (weighing 6.5 - 7.5 g) are also adaptations of previous methods in H. F. Nijhout, 22 J. Insect Physiol. 453 (1976). Mature feeding stage fifth instar animals weighing 8.5 - 9.5 g were ligated and decapitated, and immediately injected with Example No. 3 in 2 - 5 ul DMSO. Animals were held over moistened filter paper at 25 ° C and were scored after three days. Scoring was as follows: 0 = normal undeveloped blue-green L5D3 abdomen; 1 = light dorsal vessel exposure; 2 = dorsal vessel well-exposed with mild cuticular blanching, abdominal contraction; 3 = complete prepupal cuticle formation with strong abdominal contraction and strong cuticular blanching. For both L4 and L5 abdomens, 50% effective doses were determined by plotting the mean score for all individuals vs. dose, then determining the dose which gives a score of 2.0 and 1.5 respectively. Intact L5D0 hornworms were either allowed to feed on treated commercial black cutworm diet or injected into a proleg and scored after 48 hours. The 50% effective dose was calculated by plotting percentage of the population bearing a prematurely apolysed head capsule vs. dose. For all experiments in this table at least 5 different doses with 10 animals per dose were used.
The dosage differences between the two compounds was even more dramatic in bioassays on intact (unligated) L5D0 hornworms. If the compounds are injected, Example No. 3 was 67-fold as effective as 20-hydroxyecdysone, while if administered orally, it was over 670-fold as potent.
Hemolymph concentrations of 14C-Example No. 3 were measured by feeding L5D0 hornworm larvae artificial diet containing the labelled compound. At specified intervals thereafter measured volumes of hemolymph were collected, extracted and analyzed by thin layer chromatography and high performance liquid chromatography. […] Blood levels then declined rapidly, but remained at a residual level of about 3 uM for at least 36 hours thereafter.

Turning to `CC(C)(O)CC[C@@H](O)[C@](C)(O)[C@H]1CC[C@@]2(O)C3=CC(=O)[C@@H]4C[C@@H](O)[C@@H](O)C[C@]4(C)[C@H]3CC[C@]12C` [20-hydroxyecdysone, reference compound], under “Manduca sexta”, the ED50 was > 2000 mg/kg. For the setting “feeding up to 2000 ppm, L5D0 hornworm larvae”, the head capsule slippage result is given as “failed to elicit head capsule slippage”.
With `CC(C)(C)N(NC(=O)c1ccccc1)C(=O)c1ccccc1` [Example No. 3, N'-t-butyl-N,N'-dibenzoylhydrazine], where the note is “Manduca sexta, po, L5D0 hornworm larvae, in artificial diet, read-out: 95% effective dose for premature molting”, the ED95 was ~10 mg/kg. Moreover, the ED50 (Manduca sexta) worked out at 3 mg/kg. Further, the “fold as potent as 20-hydroxyecdysone” value (intact L5D0 hornworms, administered orally) is reported as “over 670 fold”. Moreover, the “time to clear signs of head capsule apolysis” value (newly ecdysed L5D0 larvae, after the initiation of feeding) was 24 h.
